In BindingDB's records for doi:10.1016/0028-3908(94)90059-0 (University of Alberta, 1994):
Where “and” joins values, the source holds several entries; their conditions need not be identical. Equal values may be shown once.

Columns and labels:
[1] = target: T1, 5-hydroxytryptamine receptor 2C (Rattus norvegicus, UniProt P08909)
T1 sequence (P08909 whole entry): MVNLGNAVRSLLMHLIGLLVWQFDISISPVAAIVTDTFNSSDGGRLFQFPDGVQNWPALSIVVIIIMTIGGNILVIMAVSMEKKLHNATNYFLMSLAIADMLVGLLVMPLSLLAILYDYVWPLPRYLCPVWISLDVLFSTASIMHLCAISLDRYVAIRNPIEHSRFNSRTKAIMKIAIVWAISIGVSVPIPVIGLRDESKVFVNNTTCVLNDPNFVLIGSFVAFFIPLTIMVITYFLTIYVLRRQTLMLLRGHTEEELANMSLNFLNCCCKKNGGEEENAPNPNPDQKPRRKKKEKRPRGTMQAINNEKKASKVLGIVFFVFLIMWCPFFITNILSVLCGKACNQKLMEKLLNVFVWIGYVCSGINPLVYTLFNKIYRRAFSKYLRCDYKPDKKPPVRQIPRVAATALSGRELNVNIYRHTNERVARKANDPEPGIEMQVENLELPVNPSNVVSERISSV

[2] = target: 5-hydroxytryptamine receptor 4 (Cavia porcellus, UniProt O70528)
[3] = target: 5-hydroxytryptamine receptor 2A (Rattus norvegicus, UniProt P14842)
[4] = target: T2, 5-hydroxytryptamine receptor 1F (Rattus norvegicus, UniProt P30940)
T2 sequence (P30940 whole entry): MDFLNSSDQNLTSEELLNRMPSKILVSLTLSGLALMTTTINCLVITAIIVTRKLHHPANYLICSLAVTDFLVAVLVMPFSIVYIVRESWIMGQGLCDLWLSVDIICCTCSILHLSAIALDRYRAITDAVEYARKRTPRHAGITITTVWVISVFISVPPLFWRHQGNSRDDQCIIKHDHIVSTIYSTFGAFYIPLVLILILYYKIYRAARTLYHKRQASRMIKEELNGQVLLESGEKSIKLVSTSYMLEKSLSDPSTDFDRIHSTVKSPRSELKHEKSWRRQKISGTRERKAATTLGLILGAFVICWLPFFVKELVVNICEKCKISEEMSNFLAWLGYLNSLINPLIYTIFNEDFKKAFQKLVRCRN

[5] = target: 5-hydroxytryptamine receptor 5A (Rattus norvegicus, UniProt P35364)
[6] = target: T3, 5-hydroxytryptamine receptor 1F (Mus musculus, UniProt Q02284)
T3 sequence (Q02284 whole entry): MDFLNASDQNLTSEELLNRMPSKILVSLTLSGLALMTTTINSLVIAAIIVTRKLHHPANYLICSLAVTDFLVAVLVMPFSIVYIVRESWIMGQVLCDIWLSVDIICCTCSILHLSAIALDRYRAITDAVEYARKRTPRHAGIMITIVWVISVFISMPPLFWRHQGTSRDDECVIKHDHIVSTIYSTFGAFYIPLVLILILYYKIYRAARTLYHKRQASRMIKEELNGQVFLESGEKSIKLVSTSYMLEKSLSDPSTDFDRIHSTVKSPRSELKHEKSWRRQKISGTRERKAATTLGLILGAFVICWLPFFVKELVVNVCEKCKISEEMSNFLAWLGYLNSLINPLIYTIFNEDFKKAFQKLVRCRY

[7] = target: 5-hydroxytryptamine receptor 1B (Mus musculus, UniProt P28334)
[8] = target: 5-hydroxytryptamine receptor 7 (Mus musculus, UniProt P32304)
[9] = target: 5-hydroxytryptamine receptor 1E (Homo sapiens, UniProt P28566)
[10] = target: 5-hydroxytryptamine receptor 5A (Mus musculus, UniProt P30966)
[11] = target: 5-hydroxytryptamine receptor 1D (Rattus norvegicus, UniProt P28565)
[12] = target: 5-hydroxytryptamine receptor 2B (Rattus norvegicus, UniProt P30994)
[13] = target: 5-hydroxytryptamine receptor 1B (Rattus norvegicus, UniProt P28564)
[14] = target: T4, 5-hydroxytryptamine receptor 3A (Mus musculus, UniProt P23979)
T4 sequence (P23979 whole entry): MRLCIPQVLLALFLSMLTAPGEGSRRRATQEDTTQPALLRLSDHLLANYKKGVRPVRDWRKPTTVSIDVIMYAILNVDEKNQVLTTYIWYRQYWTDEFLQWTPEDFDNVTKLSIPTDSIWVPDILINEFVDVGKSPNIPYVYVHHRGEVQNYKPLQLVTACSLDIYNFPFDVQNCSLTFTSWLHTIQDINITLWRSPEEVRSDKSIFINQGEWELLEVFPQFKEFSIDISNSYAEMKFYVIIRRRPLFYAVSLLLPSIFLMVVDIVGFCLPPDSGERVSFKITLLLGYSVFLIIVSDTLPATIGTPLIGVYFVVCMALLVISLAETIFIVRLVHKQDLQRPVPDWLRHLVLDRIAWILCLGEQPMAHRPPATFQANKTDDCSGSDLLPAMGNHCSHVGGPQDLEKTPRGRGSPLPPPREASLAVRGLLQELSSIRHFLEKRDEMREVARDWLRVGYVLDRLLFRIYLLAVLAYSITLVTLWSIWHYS

[15] = target: 5-hydroxytryptamine receptor 2B (Mus musculus, UniProt Q02152)
[16] = target: 5-hydroxytryptamine receptor 5B (Rattus norvegicus, UniProt P35365)
[17] = target: 5-hydroxytryptamine receptor 1D (Canis lupus familiaris, UniProt P11614)
[18] = target: T5, 5-hydroxytryptamine receptor 1F (Homo sapiens, UniProt P30939)
T5 sequence (P30939 whole entry): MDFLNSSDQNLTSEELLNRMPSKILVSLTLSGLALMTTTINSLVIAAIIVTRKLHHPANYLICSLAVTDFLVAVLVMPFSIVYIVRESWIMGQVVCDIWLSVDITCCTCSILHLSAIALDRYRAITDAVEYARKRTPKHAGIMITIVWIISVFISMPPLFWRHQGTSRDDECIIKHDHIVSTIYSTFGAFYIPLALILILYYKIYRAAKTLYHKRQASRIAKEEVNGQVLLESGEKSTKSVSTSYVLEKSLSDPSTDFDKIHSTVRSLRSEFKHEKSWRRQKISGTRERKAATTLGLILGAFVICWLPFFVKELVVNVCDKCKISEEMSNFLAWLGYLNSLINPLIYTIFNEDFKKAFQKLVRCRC

Chain of 5-hydroxytryptamine receptor 5A (Rattus norvegicus, UniProt P35364) (P35364 whole entry): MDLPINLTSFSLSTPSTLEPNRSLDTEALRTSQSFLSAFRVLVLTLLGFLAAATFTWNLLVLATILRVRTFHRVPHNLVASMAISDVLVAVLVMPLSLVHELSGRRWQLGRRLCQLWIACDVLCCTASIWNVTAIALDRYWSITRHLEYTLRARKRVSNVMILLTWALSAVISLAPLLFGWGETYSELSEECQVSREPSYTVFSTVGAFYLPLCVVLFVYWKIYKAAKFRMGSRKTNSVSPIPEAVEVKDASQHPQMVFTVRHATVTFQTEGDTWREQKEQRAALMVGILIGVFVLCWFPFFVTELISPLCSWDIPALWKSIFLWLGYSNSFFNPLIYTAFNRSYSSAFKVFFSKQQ
Chain of 5-hydroxytryptamine receptor 7 (P32304 whole entry): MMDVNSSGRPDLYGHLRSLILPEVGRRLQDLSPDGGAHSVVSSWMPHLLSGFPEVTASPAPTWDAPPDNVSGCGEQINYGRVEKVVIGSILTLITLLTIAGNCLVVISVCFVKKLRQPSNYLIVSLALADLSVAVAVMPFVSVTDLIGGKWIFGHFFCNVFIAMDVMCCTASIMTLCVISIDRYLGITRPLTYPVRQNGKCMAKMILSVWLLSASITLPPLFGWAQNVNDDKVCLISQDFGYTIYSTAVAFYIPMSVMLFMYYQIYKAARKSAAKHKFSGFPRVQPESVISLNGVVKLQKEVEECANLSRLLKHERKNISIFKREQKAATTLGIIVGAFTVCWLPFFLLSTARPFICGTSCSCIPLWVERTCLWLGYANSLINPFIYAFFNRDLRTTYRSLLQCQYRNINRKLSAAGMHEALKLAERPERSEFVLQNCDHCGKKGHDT
Chain of 5-hydroxytryptamine receptor 1B (Rattus norvegicus, UniProt P28564) (P28564 whole entry): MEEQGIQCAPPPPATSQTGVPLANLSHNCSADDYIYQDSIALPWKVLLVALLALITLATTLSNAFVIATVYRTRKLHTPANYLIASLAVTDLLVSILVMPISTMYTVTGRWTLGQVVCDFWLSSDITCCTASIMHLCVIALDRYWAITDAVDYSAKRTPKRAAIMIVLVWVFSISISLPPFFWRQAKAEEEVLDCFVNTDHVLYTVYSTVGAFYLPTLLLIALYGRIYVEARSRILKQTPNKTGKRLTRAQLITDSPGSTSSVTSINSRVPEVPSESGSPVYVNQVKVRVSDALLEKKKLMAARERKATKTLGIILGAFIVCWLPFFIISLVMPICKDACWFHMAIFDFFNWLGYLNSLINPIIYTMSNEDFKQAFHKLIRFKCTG
Chain of 5-hydroxytryptamine receptor 4 (O70528 whole entry): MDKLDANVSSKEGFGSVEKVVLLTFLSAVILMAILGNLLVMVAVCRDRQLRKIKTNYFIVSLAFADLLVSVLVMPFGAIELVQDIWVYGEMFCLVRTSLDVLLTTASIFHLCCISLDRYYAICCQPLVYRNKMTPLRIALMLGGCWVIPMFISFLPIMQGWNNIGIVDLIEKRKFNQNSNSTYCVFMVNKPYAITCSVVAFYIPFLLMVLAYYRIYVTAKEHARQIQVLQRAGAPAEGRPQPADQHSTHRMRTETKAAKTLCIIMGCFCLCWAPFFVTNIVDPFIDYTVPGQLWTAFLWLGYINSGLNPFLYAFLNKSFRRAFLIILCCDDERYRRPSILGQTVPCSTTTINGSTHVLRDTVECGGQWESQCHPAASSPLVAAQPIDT
Chain of 5-hydroxytryptamine receptor 5A (Mus musculus, UniProt P30966) (P30966 whole entry): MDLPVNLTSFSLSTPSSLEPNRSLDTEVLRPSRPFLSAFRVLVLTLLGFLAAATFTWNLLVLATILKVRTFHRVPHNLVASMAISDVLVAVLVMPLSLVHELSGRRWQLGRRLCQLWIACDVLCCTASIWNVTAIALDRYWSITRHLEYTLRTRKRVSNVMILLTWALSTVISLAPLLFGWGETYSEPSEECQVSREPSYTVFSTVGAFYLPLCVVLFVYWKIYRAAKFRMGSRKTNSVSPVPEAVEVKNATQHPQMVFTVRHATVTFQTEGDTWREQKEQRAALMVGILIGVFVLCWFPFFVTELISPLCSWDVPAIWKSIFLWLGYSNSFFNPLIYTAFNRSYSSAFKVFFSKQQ
Chain of 5-hydroxytryptamine receptor 1E (P28566 whole entry): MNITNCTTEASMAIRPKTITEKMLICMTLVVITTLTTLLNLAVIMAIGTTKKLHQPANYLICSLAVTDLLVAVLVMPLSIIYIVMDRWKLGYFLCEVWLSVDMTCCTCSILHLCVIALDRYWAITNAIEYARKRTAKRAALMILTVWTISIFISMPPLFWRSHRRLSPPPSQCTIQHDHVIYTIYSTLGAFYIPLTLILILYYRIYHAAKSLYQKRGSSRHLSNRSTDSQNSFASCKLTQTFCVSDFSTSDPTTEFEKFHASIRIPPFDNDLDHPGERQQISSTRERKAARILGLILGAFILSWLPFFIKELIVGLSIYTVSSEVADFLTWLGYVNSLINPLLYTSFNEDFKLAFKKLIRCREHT
Chain of 5-hydroxytryptamine receptor 2B (Mus musculus, UniProt Q02152) (Q02152 whole entry): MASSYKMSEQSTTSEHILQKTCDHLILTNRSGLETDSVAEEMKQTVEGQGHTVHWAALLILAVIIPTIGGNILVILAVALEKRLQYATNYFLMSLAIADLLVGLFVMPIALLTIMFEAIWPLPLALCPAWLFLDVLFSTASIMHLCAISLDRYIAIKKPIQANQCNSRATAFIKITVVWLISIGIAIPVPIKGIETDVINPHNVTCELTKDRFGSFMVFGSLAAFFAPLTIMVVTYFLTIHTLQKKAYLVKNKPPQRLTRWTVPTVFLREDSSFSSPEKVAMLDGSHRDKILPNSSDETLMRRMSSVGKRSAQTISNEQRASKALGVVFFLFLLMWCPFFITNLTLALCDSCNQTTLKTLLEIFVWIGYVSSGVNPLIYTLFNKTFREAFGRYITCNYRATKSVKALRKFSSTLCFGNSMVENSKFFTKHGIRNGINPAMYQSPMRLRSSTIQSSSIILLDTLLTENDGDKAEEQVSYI
Chain of 5-hydroxytryptamine receptor 1D (Canis lupus familiaris, UniProt P11614) (P11614 whole entry): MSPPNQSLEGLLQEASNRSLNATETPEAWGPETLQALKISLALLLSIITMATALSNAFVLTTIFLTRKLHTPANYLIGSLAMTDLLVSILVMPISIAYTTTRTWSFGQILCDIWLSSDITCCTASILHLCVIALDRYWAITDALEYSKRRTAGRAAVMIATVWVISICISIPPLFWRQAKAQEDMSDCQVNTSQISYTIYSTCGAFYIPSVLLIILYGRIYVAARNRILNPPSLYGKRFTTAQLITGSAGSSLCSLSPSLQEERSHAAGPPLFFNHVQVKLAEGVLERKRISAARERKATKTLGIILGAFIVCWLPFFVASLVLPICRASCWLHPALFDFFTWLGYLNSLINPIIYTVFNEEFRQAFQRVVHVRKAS
Chain of 5-hydroxytryptamine receptor 1B (Mus musculus, UniProt P28334) (P28334 whole entry): as the sequence (P28564 whole entry) above, with T15A, A23T, D33G, D152E, V192M, V270A, E272D, T385A counted along it
Chain of 5-hydroxytryptamine receptor 2B (Rattus norvegicus, UniProt P30994) (P30994 whole entry): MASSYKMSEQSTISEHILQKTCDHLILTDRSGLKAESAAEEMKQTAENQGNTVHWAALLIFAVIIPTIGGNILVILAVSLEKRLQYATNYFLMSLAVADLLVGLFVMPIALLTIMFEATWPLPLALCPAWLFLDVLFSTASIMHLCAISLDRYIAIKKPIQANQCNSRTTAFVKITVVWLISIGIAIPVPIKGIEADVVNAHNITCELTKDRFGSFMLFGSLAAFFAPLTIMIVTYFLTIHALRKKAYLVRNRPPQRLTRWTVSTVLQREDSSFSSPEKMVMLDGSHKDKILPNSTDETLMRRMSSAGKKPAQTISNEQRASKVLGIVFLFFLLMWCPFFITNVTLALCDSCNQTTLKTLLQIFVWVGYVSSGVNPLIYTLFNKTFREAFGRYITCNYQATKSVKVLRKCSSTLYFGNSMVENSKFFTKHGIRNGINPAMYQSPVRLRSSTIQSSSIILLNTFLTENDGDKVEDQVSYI
Chain of 5-hydroxytryptamine receptor 1D (Rattus norvegicus, UniProt P28565) (P28565 whole entry): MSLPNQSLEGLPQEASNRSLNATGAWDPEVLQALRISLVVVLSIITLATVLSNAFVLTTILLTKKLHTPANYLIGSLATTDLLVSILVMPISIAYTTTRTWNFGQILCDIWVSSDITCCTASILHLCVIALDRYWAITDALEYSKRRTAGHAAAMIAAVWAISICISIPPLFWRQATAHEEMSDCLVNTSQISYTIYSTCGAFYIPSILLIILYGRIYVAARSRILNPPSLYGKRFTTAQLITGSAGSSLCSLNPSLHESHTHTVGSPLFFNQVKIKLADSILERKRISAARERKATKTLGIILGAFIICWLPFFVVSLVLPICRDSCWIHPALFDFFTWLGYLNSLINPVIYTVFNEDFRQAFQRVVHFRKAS
Chain of 5-hydroxytryptamine receptor 5B (P35365 whole entry): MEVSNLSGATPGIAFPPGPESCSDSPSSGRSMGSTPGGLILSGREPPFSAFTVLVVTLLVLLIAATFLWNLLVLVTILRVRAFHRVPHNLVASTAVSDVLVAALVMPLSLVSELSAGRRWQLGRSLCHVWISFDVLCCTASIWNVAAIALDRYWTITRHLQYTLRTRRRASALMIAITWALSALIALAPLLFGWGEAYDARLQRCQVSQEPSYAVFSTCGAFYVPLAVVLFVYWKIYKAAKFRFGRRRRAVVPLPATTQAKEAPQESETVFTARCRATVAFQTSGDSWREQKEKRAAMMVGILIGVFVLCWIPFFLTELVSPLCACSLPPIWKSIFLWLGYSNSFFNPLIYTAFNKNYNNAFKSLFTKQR

## Clc1cncc(N2CCNCC2)n1 [L-630,571]
[1]
  Ki: 339 nM

## CC(C)n1c(=O)n(C(=O)NC2CC3CCC(C2)N3C)c2ccccc21 (stereo not given) [BIMU 8]
[2]
  Ki: 25.1 nM and 12.6 nM

## CN(C)CCCSc1ccccc1NC(=O)/C=C/c1ccccc1 [CINANSERIN]
[3]
  Ki: 6.02 nM

## NCCc1c[nH]c2ccc(C(N)=O)cc12 [[3H]-5-carboxamidotryptamine]
[4]
  Ki: 2450 nM
[2]
  Ki: > 10000 nM
[5]
  Ki: 12.6 nM
[6]
  Ki: 3160 nM
[7]
  Ki: 10 nM
[8]
  Ki: 1 nM
[9]
  Ki: 7080 nM and 3310 nM
[10]
  Ki: 15.8 nM and 12.6 nM
[11]
  Ki: 0.37 nM
[12]
  Ki: 151 nM

## CC[C@@H](CO)NC(=O)[C@@H]1C=C2c3cccc4c3c(cn4C)C[C@H]2N(C)C1
[13]
  Ki: 1820 nM and 437 nM
[4]
  Ki: 13.5 nM
[5]
  Ki: 195 nM
[6]
  Ki: 6.3 nM
[14]
  Ki: > 10000 nM
[8]
  Ki: 12.6 nM
[9]
  Ki: 324 nM and 219 nM
[10]
  Ki: 79.4 nM
[15]
  Ki: 12.6 nM
[16]
  Ki: 1000 nM

## NCCc1c[nH]c2ccc(O)cc12 [[3H]-5-HT]
[4]
  Ki: 67.6 nM
[5]
  Ki: 240 nM
[6]
  Ki: 126 nM
[7]
  Ki: 39.8 nM
[8]
  Ki: 5.01 nM
[17]
  Ki: 15.8 nM

## O=C(c1ccc(F)cc1)C1CCN(CCn2c(=O)[nH]c3ccccc3c2=O)CC1 [3-(2-{4-[(4-fluorophenyl)carbonyl]piperidin-1-yl}ethyl)-1,2,3,4-tetrahydroquinazoline-2,4-dione]
[1]
  Ki: 47.9 nM and 20.9 nM
[15]
  Ki: 204 nM
[12]
  Ki: 3550 nM
[18]
  Ki: 1.25 nM

## CN1C[C@H](C(=O)N[C@]2(C)O[C@@]3(O)[C@@H]4CCCN4C(=O)[C@H](Cc4ccccc4)N3C2=O)C=C2c3cccc4[nH]cc(c34)C[C@H]21 [12'-hydroxy-2'-methyl-5'alpha-(phenylmethyl)ergotaman-3',6',18-trione]
[13]
  Ki: 0.03 nM
[4]
  Ki: 52.5 nM
[6]
  Ki: 50.1 nM
[8]
  Ki: 50.1 nM
[9]
  Ki: 575 nM and 537 nM
[10]
  Ki: 6.3 nM
[11]
  Ki: 0.07 nM
[16]
  Ki: 15.8 nM
[17]
  Ki: 1.94 nM

## COc1cc(N)c(Cl)cc1C(=O)N[C@H]1CN2CCC1CC2 [4-Amino-N-(R)-1-aza-bicyclo[2.2.2]oct-3-yl-5-chloro-2-methoxy-benzamide]
[2]
  Ki: 251 nM and 200 nM

## c1ccc2nc(N3CCNCC3)ccc2c1 [2-Piperazin-1-yl-quinoline (Quipazine)]
[1]
  Ki: 257 nM
[15]
  Ki: 6610 nM
